Data set [1] has as its system THP-1. The data set can be described thus: Cytotoxicity against human THP-1 cells assessed as reduction in cell viability at 50 to 100 uM incubated for 48 hrs by MTT assay. It is filed as toxicity, cell-based. The conditions noted are these: thp-1, 48 h, dose 50-100 µM. (In general: Tetrazolium assays rely on reduction of a dye to a coloured formazan, in cell work by metabolically active cells.)

Data set [2] deals with Leishmania donovani. As to the kind of experiment: Antileishmanial activity against Leishmania donovani MHOM/IN/Dd8 promastigotes assessed as promastigotes viability at 10 uM incubated for 48 hrs by MTT assay relative to control. It is filed as functional.
Data set [3] has as its system Leishmania donovani. As to the kind of experiment: Antileishmanial activity against Leishmania donovani MHOM/IN/Dd8 promastigotes assessed as promastigotes viability at 50 uM incubated for 48 hrs by MTT assay relative to control. It is filed as functional.
Data set [4] is described as follows: Cytotoxicity against human THP-1 cells assessed as cell viability at 5 uM incubated for 48 hrs by MTT assay relative to control. The format is toxicity, cell-based. The note with it: read-out: Activity.
Data set [5] relates to Leishmania donovani. The data set can be described thus: Antileishmanial activity against Leishmania donovani MHOM/IN/Dd8 promastigotes infected in PMA-differentiated human THP-1 cells assessed as increase in Hes family transcription factor 7 gene expression at 10 uM incubated for 18 hrs by RNA-seq analysis. The format is functional, organism-based.
In data set [6] the test system is Leishmania donovani. As to the kind of experiment: Induction of oxidative stress in Leishmania donovani MHOM/IN/Dd8 promastigotes assessed as increase in intracellular ROS level at 10 to 50 uM incubated for 24 hrs by H2DCFA fluorescent probe based flow cytometry analysis. It is filed as functional, organism-based. The note with it: dose 10-50 µM. (In general: A flow cytometer gives signals particle by particle.)

Data set [7] concerns Leishmania donovani. As to the kind of experiment: Antileishmanial activity against Leishmania donovani MHOM/IN/Dd8 promastigotes infected in PMA-differentiated human THP-1 cells assessed as increase in heat shock protein A6 expression at 10 uM incubated for 18 hrs by RNA-seq analysis. The format is functional, organism-based.
Data set [8] has as its system Leishmania donovani. As to the kind of experiment: Antileishmanial activity against Leishmania donovani MHOM/IN/Dd8 promastigotes assessed as inhibition of promastigotes growth incubated for 48 hrs by MTT assay. It is filed as functional, organism-based. The note with it: MHOM/IN/Dd8, 48 h.
The test system of data set [9] is Leishmania donovani. The data set can be described thus: Antileishmanial activity against Leishmania donovani MHOM/IN/Dd8 promastigotes infected in PMA-differentiated human THP-1 cells assessed as activation of neuroactive ligand-receptor interactions at 10 uM incubated for 18 hrs by KEGG analysis. It is filed as functional, organism-based.
Data set [10] relates to Leishmania donovani. As to the kind of experiment: Antileishmanial activity against Leishmania donovani MHOM/IN/Dd8 metacyclic promastigotes infected in PMA-differentiated human THP-1 cells assessed as reduction in amastigotes formation at 10 uM incubated for 48 hrs by DAPI staining based inverted microscopic analysis. It is filed as functional, organism-based.
Data set [11] relates to Leishmania donovani. The data set can be described thus: Induction of oxidative stress in Leishmania donovani MHOM/IN/Dd8 promastigotes assessed as increase in mitochondrial superoxide level at 10 to 50 uM incubated for 24 hrs by Mito sox based flow cytometry analysis. It is filed as functional, organism-based. The conditions noted are these: dose 10-50 µM.
For data set [12], the system named is Leishmania donovani. As to the kind of experiment: Antileishmanial activity against Leishmania donovani MHOM/IN/Dd8 promastigotes infected in PMA-differentiated human THP-1 cells assessed as increase in heat shock protein A7 expression at 10 uM incubated for 18 hrs by RNA-seq analysis. The format is functional, organism-based.
For data set [13], the system named is THP-1. As to the kind of experiment: Induction of oxidative stress in human THP-1 cells assessed as increase in intracellular ROS level at 10 uM incubated for 1 hr by H2DCFA fluorescent probe based flow cytometry analysis. It is filed as functional, cell-based.
Data set [14] in a line: Cytotoxicity against human THP-1 cells assessed as cell viability at 10 uM incubated for 48 hrs by MTT assay relative to control. The conditions noted are these: read-out: Activity. The format is toxicity, cell-based.
Another data set concerns Leishmania infantum. As to the kind of experiment: Antileishmanial activity against Leishmania infantum MHOM/TN/80/IPT-1 promastigotes assessed as inhibition of promastigotes growth incubated for 48 hrs by MTT assay. It is filed as functional, organism-based. The conditions noted are these: MHOM/TN/80/IPT-1, 48 h.
In data set [15] the test system is Leishmania donovani. The data set can be described thus: Antileishmanial activity against Leishmania donovani MHOM/IN/Dd8 metacyclic promastigotes infected in PMA-differentiated human THP-1 cells assessed as reduction in number of amastigotes per 100 cell at 0.5 uM incubated for 48 hrs by DAPI staining based inverted microscopic analysis. It is filed as functional, organism-based.

Data set [16] concerns THP-1. As to the kind of experiment: Induction of oxidative stress in human THP-1 cells assessed as increase in intracellular ROS level at 0.5 uM incubated for 1 hr by H2DCFA fluorescent probe based flow cytometry analysis. The format is functional, cell-based.
Data set [17] in a line: Cytotoxicity against human THP-1 cells assessed as cell viability at 50 to 100 uM incubated for 48 hrs by MTT assay relative to control.

Active and inactive are the calls of the source. The calls are words filed in the database; no cut-off is given here.

What is called IC50 is the point on the concentration scale where inhibition reaches its midpoint. On to `COc1cc(CC/C=C/C(=O)CCc2ccccc2)ccc1O`, for which the Activity entry in the data set with THP-1 [1] is “Toxic”; with Leishmania donovani [2] it was 43%; in the data set with Leishmania donovani [3], below 10%. Further, the viability at 48 h, 5 µM in [4] was found to be 79%. Further, the outcome in the data set on Leishmania donovani [5], in the data set with Leishmania donovani [6], with Leishmania donovani [7], in the data set with Leishmania donovani [9], with Leishmania donovani [10] and in the data set on Leishmania donovani [11] was Active. Also, the outcome in the data set on Leishmania donovani [12] and with THP-1 [13] was Active. The IC50 in the data set with Leishmania donovani [8] is 21.4 µM; with Leishmania infantum, 22 µM. For the same compound, in [14], the viability at 48 h, 10 µM was determined as 76%.

On to `C[C@@H]1[C@H](O)[C@@H](C)/C=C/C=C/C=C/C=C/C=C/C=C/C=C/[C@H](O[C@@H]2O[C@H](C)[C@@H](O)[C@H](N)[C@@H]2O)C[C@@H]2O[C@](O)(C[C@@H](O)C[C@@H](O)[C@H](O)CC[C@@H](O)C[C@@H](O)CC(=O)O[C@H]1C)C[C@H](O)[C@H]2C(=O)O`, for which the result with Leishmania donovani [15] was Active. The outcome with THP-1 [16] was inactive.

Take `C[S+]([O-])CCCCN=C=S` (stereo unspecified) [SULFORAPHANE]: the values for the Activity with Leishmania donovani [2] and in the data set on Leishmania donovani [3] were 57% and below 10%, respectively. Moreover, the viability at 48 h, 5 µM in data set [4] is 84%. The figures for the IC50 in the data set with Leishmania donovani [8] and in the data set on Leishmania infantum were 23.3 µM and 16.5 µM, respectively. For the same compound, the outcome in the data set on Leishmania donovani [9] and in the data set on THP-1 [13] was Active. Moreover, in data set [14], the viability at 48 h, 10 µM came out at 76%. For the same compound, the viability at 48 h, 100 µM in [17] is below 45%.

Values taken from ChEMBL document CHEMBL5236648, “Improved synthesis of deoxyalpinoid B and quantification of antileishmanial activity of deoxyalpinoid B and sulforaphane” (Bioorg Med Chem, 2023).
